Earlier results as cited in patent US20260201040A1, “TREATMENT OF SICKLE CELL DISEASE” (BioLineRx Ltd., priority 2022, published 2026).

Test system: CD34+ HSCs
Settings: short-acting CXCR4i, alone

Structure (SMILES): c1cc(CN2CCCNCCNCCCNCC2)ccc1CN1CCCNCCNCCCNCC1 [plerixafor]
- yield of optimal HSC numbers for gene therapy applications: does not reliably yield optimal HSC numbers
